Laboratory results published in patent US20130252832A1, “KRAS Variant and Tumor Biology” (Yale University, priority 2012, published 2013).

Key:
[1] = tested on: KRAS-variant 3′UTR reporter; assay: Luciferase 3'UTR reporter expression following irinotecan exposure; format: cell-based
Text: (§1) The disclosure provides a method of predicting the response of a cancer cell to the combination of a chemotherapy and monoclonal antibody therapy, including detecting a mutation in let-7 complementary site LCS6 of human KRAS in a patient sample, wherein the mutation is a SNP comprising a uracil (U) or thymine (T) to guanine (G) transition at position 4 of LCS6, and wherein the presence of the mutation indicates a resistance to the combination. In certain embodiments of this method, the cancer cell is a colorectal cancer (CRC) cell. The cancer cell may be evaluated in vitro or ex vivo. […] The chemotherapy may be a cytotoxic agent. A non-limiting example of the cytotoxic agent is irinotecan.
(§2) FIG. 24B is a graph depicting the fold repression (expressed as KRAS variant/KRAS wild type) as a function of irinotecan concentration, when cancer cells are treated with irinotecan.

wild-type 3′UTR reporter = assay: as above; format: cell-based
Text: as §1, §2

Reporter expression following irinotecan exposure [1]: statistically-significant increase | Reporter expression following irinotecan exposure (wild-type 3′UTR reporter): no change
Structure (SMILES): CCc1c2c(nc3ccc(OC(=O)N4CCC(N5CCCCC5)CC4)cc13)-c1cc3c(c(=O)n1C2)COC(=O)[C@]3(O)CC [irinotecan]
